Legend:
[1] = test system: HBV; assay: Treatment of HBV-infected patients with Compound (I), alone or in combination; type: in vivo, human
Source text: (§1) In this invention, methods of the entire treatment comprising Compound (I) monotherapy or Compound (I) in combination with other anti-HBV drug(s) for 24-120 weeks were developed.
Furthermore, treatment method of Compound (I) in combination with other anti-HBV drugs results in significant hepatitis B surface antigen (HBsAg) decline or loss. […] However, the method of treatment of this invention with Compound (I) can also induce robust HBV DNA and HBV RNA decline in such patients.

[2] = Safety and tolerability of Compound (I) in chronic hepatitis B patients; type: in vivo, human
Source text: as §1

[3] = test system: HBV; conditions: cited from earlier work
[4] = patients under the treatment methods of the invention

SMILES | hepatitis B surface antigen (HBsAg) decline or loss ([1]; Compound (I) in combination with other anti-HBV drugs) | HBV DNA decline [1, 4] | HBV RNA decline [1, 4] | safety and tolerability [2] | HBsAg decline ([3]; weekly dosing for 4, 8, 12 weeks, virally suppressed patients with chronic hepatitis B) | change in HBsAg after treatment ([3]; weekly dosing for 12 weeks in combination with tenofovir disoproxil fumarate, viremic CHB patients not on oral antiviral treatment)
CC[C@H](OC(C)=O)[C@@H]1C[C@@H](O)[C@H](n2c(=O)sc3cnc(N)nc32)O1 [Compound (I), (1S)-1-[(2S,4R,5R)-5-(5-amino-2-oxo-thiazolo[4,5-d]pyrimidin-3-yl)-4-hydroxy-tetrahydrofuran-2-yl]propyl] acetate] | significant | robust | robust | safe and well tolerated | – | –
CCCCOc1nc(N)c2c(n1)N(Cc1cccc(CN3CCCC3)c1)CC(=O)N2 [Vesatolimod] | – | – | – | – | did not show HBsAg decline | did not demonstrate any meaningful change in HBsAg

From US20230044958A1, “METHOD OF TREATING VIRUS INFECTION USING A TLR7 AGONIST” (Hoffmann-La Roche Inc., priority 2019, published 2023)
